Series [1] concerns primary rat microglia. As to the kind of experiment: Cell toxicity (dead cells, size <150 μm2) in coated fibrin (cFib) assay.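 Note: share of dead cells sized under 150 µm2 at 10 µM in fibrin-stimulated microglia HTS.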 The conditions noted are these: primary HTS, 10 μM, fibrin assay, dead cells size <150 μm2.
The test system of series [2] is fibrin-induced microglia activation. The series is described as follows: Image-based assay of fibrin-induced microglia activation (HTS and dose response). The class given is cell-based, rat. The settings on record: Rattus norvegicus, Microglia, primary HTS, 10 μM, fibrin-stimulated primary microglia; read-out: Fibrin % inhibition.
Series [3] relates to fibrin- and LPS-induced microglia activation. The series is described as follows: cells. The format is cell-based, rat. The conditions noted are these: primary HTS, 10 μM.
The subject of series [4] is LPS-induced microglia activation. The series is described as follows: Image-based assay of LPS-induced microglia activation (HTS and dose response). The format is cell-based, rat. The settings on record: Rattus norvegicus, Microglia, primary HTS, 10 μM, LPS-stimulated primary microglia; read-out: LPS % inhibition.
Series [5] has as its system primary rat microglia. As to the kind of experiment: Cell toxicity (dead cells, size <150 μm2) in LPS assay. The conditions noted are these: primary HTS, 10 μM, LPS assay, dead cells size <150 μm2.

In the case of `CCOc1nc2cccc(C(=O)O)c2n1Cc1ccc(-c2ccccc2-c2nnn[nH]2)cc1` [Candesartan], the “Fibrin % cell toxicity” value in the series with primary rat microglia [1] is given as 1%. Also, the inhibition (usually the change of the read-out against control, counted positive when it falls) at 10 µM worked out at 9% in series [2] and 11% in series [4]. Moreover, in series [3], the “Quadrant (FIG. 5b)” value is “Q4”. Also, the “LPS % cell toxicity” value in the series with primary rat microglia [5] amounted to 0%.
The corresponding values for `C[C@]12CCC(=O)C=C1C=C[C@@H]1[C@@H]2CC[C@@]2(C)[C@H]1CC[C@@]21CCC(=O)O1` [Canrenone] are 1%, -10%, 19%, “Q4” and 0%.
Taken in the same sequence, the figures for `COc1cc(C(=O)NCCCCCC(=O)O)cc(OC)c1OC` [Capobenic Acid] were 1%, 9%, 16%, “Q4” and 0%.
Taken in the same sequence, the figures for `COc1cc(CNC(=O)CCCC/C=C/C(C)C)ccc1O` [Capsaicin] were 1%, -45%, 9%, “Q4” and 0%.
Turning to `C[C@H](CS)C(=O)N1CCC[C@H]1C(=O)O` [Captopril], in the series with primary rat microglia [1], the “Fibrin % cell toxicity” value is 1%. In addition, the values for the inhibition at 10 µM in series [2] and in series [4] were -11% and 12%, respectively. In series [3], the “Quadrant (FIG. 5b)” value is recorded as “Q4”. Moreover, the “LPS % cell toxicity” value in the series with primary rat microglia [5] turned out to be 1%.
For the compound `C[N+](C)(C)CCOC(N)=O` [Carbachol], the “Fibrin % cell toxicity” value in the series with primary rat microglia [1] was determined as 1%. Moreover, the inhibition at 10 µM in series [2] is -18%; in series [4], 6%. Also, the “Quadrant (FIG. 5b)” value in series [3] was “Q4”. The “LPS % cell toxicity” value in the series with primary rat microglia [5] is on record as 0%.
The corresponding values for `COC(=O)N/N=C/c1c[n+]([O-])c2ccccc2[n+]1[O-]` [Carbadox] are 1%, -2%, 11%, “Q4” and 1%.
As to `NC(=O)N1c2ccccc2C=Cc2ccccc21` [Carbamazepine], in the series on primary rat microglia [1], the “Fibrin % cell toxicity” value was 0%. For the same compound, the inhibition at 10 µM is -25% in series [2] and 4% in series [4]. In addition, the “Quadrant (FIG. 5b)” value in series [3] is “Q4”. In addition, the “LPS % cell toxicity” value in the series on primary rat microglia [5] is listed as 0%.
Regarding `CC1(C)S[C@@H]2[C@H](NC(=O)C(C(=O)O)c3ccccc3)C(=O)N2[C@H]1C(=O)O` (stereo partly shown) [Carbenicillin], the “Fibrin % cell toxicity” value in the series on primary rat microglia [1] was 1%. In addition, the inhibition at 10 µM in series [2] was -4%; in series [4], 4%. For the same compound, the “Quadrant (FIG. 5b)” value in series [3] is “Q4”. Besides, the “LPS % cell toxicity” value with primary rat microglia [5] was 0%.
Taken in the same sequence, the figures for `CC1(C)[C@@H](OC(=O)CCC(=O)O)CC[C@]2(C)[C@H]3C(=O)C=C4[C@@H]5C[C@@](C)(C(=O)O)CC[C@]5(C)CC[C@@]4(C)[C@]3(C)CC[C@@H]12` [Carbenoxolone Sodium] were 0%, 16%, 6%, “Q4” and 0%.
Taken in the same sequence, the figures for `CCOC(=O)n1ccn(C)c1=S` [Carbimazole] were 0%, -32%, 8%, “Q4” and 0%.
Consider `CN(C)CCOC(c1ccc(Cl)cc1)c1ccccn1` (stereo not shown) [Carbinoxamine], for which the “Fibrin % cell toxicity” value with primary rat microglia [1] is 0%. For the same compound, the inhibition at 10 µM was 6% in series [2] and -3% in series [4]. Also, in series [3], the “Quadrant (FIG. 5b)” value was “Q4”. For the same compound, the “LPS % cell toxicity” value in the series with primary rat microglia [5] is 0%.
As for `NC(=O)N[C@@H](CCC(=O)O)C(=O)O` [Carglumic Acid], the “Fibrin % cell toxicity” value in the series on primary rat microglia [1] is 1%. For the same compound, the figures for the inhibition at 10 µM in series [2] and in series [4] were 1% and 6%, respectively. For the same compound, the “Quadrant (FIG. 5b)” value in series [3] was “Q4”. The “LPS % cell toxicity” value with primary rat microglia [5] was determined as 0%.
Consider `CCCC(C)(COC(N)=O)COC(=O)NC(C)C` (stereo not shown) [Carisoprodol], for which, in the series with primary rat microglia [1], the “Fibrin % cell toxicity” value is on record as 0%. For the same compound, the inhibition at 10 µM is 1% in series [2] and -1% in series [4]. For the same compound, in series [3], the “Quadrant (FIG. 5b)” value is reported as “Q4”. The “LPS % cell toxicity” value in the series on primary rat microglia [5] is on record as 0%.

The values above are taken from patent US20210330611A1, “THERAPY FOR NEUROLOGICAL DISEASES/DISORDERS” (priority 2020, published 2021).
